Our source for the IC50 values is patent publication US20220389061A1, “IMMUNOMODULATORS” (priority 2019, published 2022).

The assay concerns the target T1, PD-1/PD-L1 (Homo sapiens, UniProt Q9NZQ7).
T1 construct: TVMV protease site linker (C); made in house; host or cells: HEK293T cells
Put plainly: PD-1/PD-L1 Homogenous Time-Resolved Fluorescence (HTRF) binding assay. In a few lines:
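Compounds preincubated 15 min with PD-L1-His (10 nM final), then PD-1-Ig (20 nM final) added for 15 min in dPBS with 0.1% BSA, 0.05% Tween-20. Detection by Eu-cryptate anti-Ig (1 nM) and APC anti-His (20 nM) HTRF.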
On the technique in general: In TR-FRET formats the signal depends on donor and acceptor labels being close together.

Where [1] appears, read: PD-L1-His 10 nM pre-incubated with inhibitor, PD-1-Ig 20 nM, read-out: HTRF IC50.

Like-named read-outs stand apart in the source and are kept apart here. Starred links: 1 amine or outer side, 2 acyl side, 3 side chain; linkers in the order of their positions; H or OH if unused. Positions of bridges follow the written chain, without caps; N, C: chain ends. Non-standard residues stand in square brackets, D forms with d. Residues, ends and D or L forms follow the SMILES beside them. Groups on a side chain read outwards from the residue. *: point of attachment. Trp(1-CH2COOH) = N[C@@H](Cc1cn(CC(=O)O)c2ccccc12)C(=O)O; NH(1-naphthyl) = c1ccc2c(N*)cccc2c1; X38 = N#Cc1c[nH]c2c(NC(=S)*)cccc12; X68 = CC1(C)CCC(C)(C)c2cc(N*)ccc21; X75 = S=C(Nc1ccc(C2CC2)c2ccccc12)*; Hyp = O=C(O)[C@@H]1C[C@@H](O)CN1; X33 = Cc1cc2ccc(NC(=S)*)cc2[nH]1; X35 = Cc1n[nH]c2c(NC(=S)*)cccc12; X42 = S=C(Nc1ccc2nccnc2c1Br)*; NMeNle = CCCC[C@H](NC)C(=O)O; X16 = S=C(Nc1ccc2c(c1)OCO2)*; X7 = S=C(Nc1ccc2cc[nH]c2c1)*; X20 = O=C(Oc1ccc2ccccc2c1)*; X52 = c1ccc2c(N*)c[nH]c2c1; NMeA = CN[C@@H](C)C(=O)O; X71 = c1cc2c(cc1N*)OCCO2; βNA = c1ccc2cc(N*)ccc2c1; Dab = NCC[C@H](N)C(=O)O; Dap = NC[C@H](N)C(=O)O; CO = O=C([*:1])[*:2]

T1 sequence (Q9NZQ7 18-239): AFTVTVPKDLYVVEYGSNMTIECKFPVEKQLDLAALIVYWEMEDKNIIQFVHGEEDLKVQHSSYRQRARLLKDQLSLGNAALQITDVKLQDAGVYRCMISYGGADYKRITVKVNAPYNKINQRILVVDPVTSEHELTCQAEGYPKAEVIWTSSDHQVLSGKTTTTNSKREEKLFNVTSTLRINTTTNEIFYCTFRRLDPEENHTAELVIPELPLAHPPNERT

In the case of `CCCC[C@H]1C(=O)N(C)[C@@H](CCCC)C(=O)N[C@@H](CC(C)C)C(=O)N[C@H](C(=O)NCC(N)=O)CSCC(=O)N[C@@H](Cc2ccc(O)cc2)C(=O)N(C)[C@@H](C)C(=O)N[C@@H](CC(N)=O)C(=O)N2CCC[C@H]2C(=O)N[C@@H](CNC(=O)Nc2cccc3ccccc23)C(=O)N[C@@H](CC(C)C)C(=O)N2C[C@H](O)C[C@H]2C(=O)N[C@@H](Cc2c[nH]c3ccccc23)C(=O)N[C@@H](CCN)C(=O)N[C@@H](Cc2cn(CC(=O)O)c3ccccc23)C(=O)N1C` [Example 3040] ({CH2CO}-Y[NMeA]NP[Dap]([CO-NH(1-naphthyl)])L[Hyp]W[Dab][Trp(1-CH2COOH)][NMeNle][NMeNle]LCG-NH2; thioether N-14), the IC50 (commonly the concentration that gives 50% inhibition) came out at 0.8 nM.
With `CCCC[C@H]1C(=O)N(C)[C@@H](CCCC)C(=O)N[C@@H](CC(C)C)C(=O)N[C@H](C(=O)NCC(N)=O)CSCC(=O)N[C@@H](Cc2ccc(O)cc2)C(=O)N(C)[C@@H](C)C(=O)N[C@@H](CC(N)=O)C(=O)N2CCC[C@H]2C(=O)N[C@@H](CNC(=O)Nc2c[nH]c3ccccc23)C(=O)N[C@@H](CC(C)C)C(=O)N2C[C@H](O)C[C@H]2C(=O)N[C@@H](Cc2c[nH]c3ccccc23)C(=O)N[C@@H](CCN)C(=O)N[C@@H](Cc2cn(CC(=O)O)c3ccccc23)C(=O)N1C` [Example 3041] ({CH2CO}-Y[NMeA]NP[Dap]([CO-X52])L[Hyp]W[Dab][Trp(1-CH2COOH)][NMeNle][NMeNle]LCG-NH2; thioether N-14), under setting [1], the IC50 came out at 0.3 nM.
Take `CCCC[C@H]1C(=O)N(C)[C@@H](CCCC)C(=O)N[C@@H](CC(C)C)C(=O)N[C@H](C(=O)NCC(N)=O)CSCC(=O)N[C@@H](Cc2ccc(O)cc2)C(=O)N(C)[C@@H](C)C(=O)N[C@@H](CC(N)=O)C(=O)N2CCC[C@H]2C(=O)N[C@@H](CNC(=O)Nc2ccc3c(c2)OCCO3)C(=O)N[C@@H](CC(C)C)C(=O)N2C[C@H](O)C[C@H]2C(=O)N[C@@H](Cc2c[nH]c3ccccc23)C(=O)N[C@@H](CCN)C(=O)N[C@@H](Cc2cn(CC(=O)O)c3ccccc23)C(=O)N1C` [Example 3042] ({CH2CO}-Y[NMeA]NP[Dap]([CO-X71])L[Hyp]W[Dab][Trp(1-CH2COOH)][NMeNle][NMeNle]LCG-NH2; thioether N-14): the IC50 under setting [1] came to 2.5 nM.
As to `CCCC[C@H]1C(=O)N(C)[C@@H](CCCC)C(=O)N[C@@H](CC(C)C)C(=O)N[C@H](C(=O)NCC(N)=O)CSCC(=O)N[C@@H](Cc2ccc(O)cc2)C(=O)N(C)[C@@H](C)C(=O)N[C@@H](CC(N)=O)C(=O)N2CCC[C@H]2C(=O)N[C@@H](CNC(=O)Nc2ccc3ccccc3c2)C(=O)N[C@@H](CC(C)C)C(=O)N2C[C@H](O)C[C@H]2C(=O)N[C@@H](Cc2c[nH]c3ccccc23)C(=O)N[C@@H](CCN)C(=O)N[C@@H](Cc2cn(CC(=O)O)c3ccccc23)C(=O)N1C` [Example 3043] ({CH2CO}-Y[NMeA]NP[Dap]([CO-βNA])L[Hyp]W[Dab][Trp(1-CH2COOH)][NMeNle][NMeNle]LCG-NH2; thioether N-14), the IC50 stood at 3.2 nM.
Turning to `CCCC[C@H]1C(=O)N(C)[C@@H](CCCC)C(=O)N[C@@H](CC(C)C)C(=O)N[C@H](C(=O)NCC(N)=O)CSCC(=O)N[C@@H](Cc2ccc(O)cc2)C(=O)N(C)[C@@H](C)C(=O)N[C@@H](CC(N)=O)C(=O)N2CCC[C@H]2C(=O)N[C@@H](CNC(=S)Nc2ccc(C3CC3)c3ccccc23)C(=O)N[C@@H](CC(C)C)C(=O)N2C[C@H](O)C[C@H]2C(=O)N[C@@H](Cc2c[nH]c3ccccc23)C(=O)N[C@@H](CCN)C(=O)N[C@@H](Cc2cn(CC(=O)O)c3ccccc23)C(=O)N1C` [Example 3044] ({CH2CO}-Y[NMeA]NP[Dap](X75)L[Hyp]W[Dab][Trp(1-CH2COOH)][NMeNle][NMeNle]LCG-NH2; thioether N-14), under setting [1], the IC50 was 3 nM.
Consider `CCCC[C@H]1C(=O)N(C)[C@@H](CCCC)C(=O)N[C@@H](CC(C)C)C(=O)N[C@H](C(=O)NCC(N)=O)CSCC(=O)N[C@@H](Cc2ccc(O)cc2)C(=O)N(C)[C@@H](C)C(=O)N[C@@H](CC(N)=O)C(=O)N2CCC[C@H]2C(=O)N[C@@H](CNC(=O)Oc2ccc3ccccc3c2)C(=O)N[C@@H](CC(C)C)C(=O)N2C[C@H](O)C[C@H]2C(=O)N[C@@H](Cc2c[nH]c3ccccc23)C(=O)N[C@@H](CCN)C(=O)N[C@@H](Cc2cn(CC(=O)O)c3ccccc23)C(=O)N1C` [Example 3045] ({CH2CO}-Y[NMeA]NP[Dap](X20)L[Hyp]W[Dab][Trp(1-CH2COOH)][NMeNle][NMeNle]LCG-NH2; thioether N-14), for which the 50% inhibitory concentration (IC50) worked out at 1.3 nM.
With `CCCC[C@H]1C(=O)N(C)[C@@H](CCCC)C(=O)N[C@@H](CC(C)C)C(=O)N[C@H](C(=O)NCC(N)=O)CSCC(=O)N[C@@H](Cc2ccc(O)cc2)C(=O)N(C)[C@@H](C)C(=O)N[C@@H](CC(N)=O)C(=O)N2CCC[C@H]2C(=O)N[C@@H](CNC(=O)Nc2ccc3c(c2)C(C)(C)CCC3(C)C)C(=O)N[C@@H](CC(C)C)C(=O)N2C[C@H](O)C[C@H]2C(=O)N[C@@H](Cc2c[nH]c3ccccc23)C(=O)N[C@@H](CCN)C(=O)N[C@@H](Cc2cn(CC(=O)O)c3ccccc23)C(=O)N1C` [Example 3046] ({CH2CO}-Y[NMeA]NP[Dap]([CO-X68])L[Hyp]W[Dab][Trp(1-CH2COOH)][NMeNle][NMeNle]LCG-NH2; thioether N-14), under setting [1], the concentration for half-maximal inhibition (IC50) amounted to 3.3 nM.
Still for that read-out and setting: the value for `CCCC[C@H]1C(=O)N(C)[C@@H](CCCC)C(=O)N[C@@H](CC(C)C)C(=O)N[C@H](C(=O)NCC(N)=O)CSCC(=O)N[C@@H](Cc2ccc(O)cc2)C(=O)N(C)[C@@H](C)C(=O)N[C@@H](CC(N)=O)C(=O)N2CCC[C@H]2C(=O)N[C@@H](CNC(=S)Nc2ccc3nccnc3c2Br)C(=O)N[C@@H](CC(C)C)C(=O)N2C[C@H](O)C[C@H]2C(=O)N[C@@H](Cc2c[nH]c3ccccc23)C(=O)N[C@@H](CCN)C(=O)N[C@@H](Cc2cn(CC(=O)O)c3ccccc23)C(=O)N1C` [Example 3047] ({CH2CO}-Y[NMeA]NP[Dap](X42)L[Hyp]W[Dab][Trp(1-CH2COOH)][NMeNle][NMeNle]LCG-NH2; thioether N-14) was 5.8 nM; that for `CCCC[C@H]1C(=O)N(C)[C@@H](CCCC)C(=O)N[C@@H](CC(C)C)C(=O)N[C@H](C(=O)NCC(N)=O)CSCC(=O)N[C@@H](Cc2ccc(O)cc2)C(=O)N(C)[C@@H](C)C(=O)N[C@@H](CC(N)=O)C(=O)N2CCC[C@H]2C(=O)N[C@@H](CNC(=S)Nc2ccc3cc(C)[nH]c3c2)C(=O)N[C@@H](CC(C)C)C(=O)N2C[C@H](O)C[C@H]2C(=O)N[C@@H](Cc2c[nH]c3ccccc23)C(=O)N[C@@H](CCN)C(=O)N[C@@H](Cc2cn(CC(=O)O)c3ccccc23)C(=O)N1C` [Example 3048] ({CH2CO}-Y[NMeA]NP[Dap](X33)L[Hyp]W[Dab][Trp(1-CH2COOH)][NMeNle][NMeNle]LCG-NH2; thioether N-14) was 3 nM.
On the same count and under the same terms, the value for `CCCC[C@H]1C(=O)N(C)[C@@H](CCCC)C(=O)N[C@@H](CC(C)C)C(=O)N[C@H](C(=O)NCC(N)=O)CSCC(=O)N[C@@H](Cc2ccc(O)cc2)C(=O)N(C)[C@@H](C)C(=O)N[C@@H](CC(N)=O)C(=O)N2CCC[C@H]2C(=O)N[C@@H](CNC(=S)Nc2ccc3cc[nH]c3c2)C(=O)N[C@@H](CC(C)C)C(=O)N2C[C@H](O)C[C@H]2C(=O)N[C@@H](Cc2c[nH]c3ccccc23)C(=O)N[C@@H](CCN)C(=O)N[C@@H](Cc2cn(CC(=O)O)c3ccccc23)C(=O)N1C` [Example 3049] ({CH2CO}-Y[NMeA]NP[Dap](X7)L[Hyp]W[Dab][Trp(1-CH2COOH)][NMeNle][NMeNle]LCG-NH2; thioether N-14) was 4.1 nM; that for `CCCC[C@H]1C(=O)N(C)[C@@H](CCCC)C(=O)N[C@@H](CC(C)C)C(=O)N[C@H](C(=O)NCC(N)=O)CSCC(=O)N[C@@H](Cc2ccc(O)cc2)C(=O)N(C)[C@@H](C)C(=O)N[C@@H](CC(N)=O)C(=O)N2CCC[C@H]2C(=O)N[C@@H](CNC(=S)Nc2ccc3c(c2)OCO3)C(=O)N[C@@H](CC(C)C)C(=O)N2C[C@H](O)C[C@H]2C(=O)N[C@@H](Cc2c[nH]c3ccccc23)C(=O)N[C@@H](CCNC(=S)Nc2ccc3c(c2)OCO3)C(=O)N[C@@H](Cc2cn(CC(=O)O)c3ccccc23)C(=O)N1C` [Example 3050] ({CH2CO}-Y[NMeA]NP[Dap](X16)L[Hyp]W[Dab](X16)[Trp(1-CH2COOH)][NMeNle][NMeNle]LCG-NH2; thioether N-14) was 2.7 nM; that for `CCCC[C@H]1C(=O)N(C)[C@@H](CCCC)C(=O)N[C@@H](CC(C)C)C(=O)N[C@H](C(=O)NCC(N)=O)CSCC(=O)N[C@@H](Cc2ccc(O)cc2)C(=O)N(C)[C@@H](C)C(=O)N[C@@H](CC(N)=O)C(=O)N2CCC[C@H]2C(=O)N[C@@H](CNC(=S)Nc2cccc3c(C#N)c[nH]c23)C(=O)N[C@@H](CC(C)C)C(=O)N2C[C@H](O)C[C@H]2C(=O)N[C@@H](Cc2c[nH]c3ccccc23)C(=O)N[C@@H](CCNC(=S)Nc2cccc3c(C#N)c[nH]c23)C(=O)N[C@@H](Cc2cn(CC(=O)O)c3ccccc23)C(=O)N1C` [Example 3051] ({CH2CO}-Y[NMeA]NP[Dap](X38)L[Hyp]W[Dab](X38)[Trp(1-CH2COOH)][NMeNle][NMeNle]LCG-NH2; thioether N-14) was 4.5 nM.
On the same count and under the same terms, for `CCCC[C@H]1C(=O)N(C)[C@@H](CCCC)C(=O)N[C@@H](CC(C)C)C(=O)N[C@H](C(=O)NCC(N)=O)CSCC(=O)N[C@@H](Cc2ccc(O)cc2)C(=O)N(C)[C@@H](C)C(=O)N[C@@H](CC(N)=O)C(=O)N2CCC[C@H]2C(=O)N[C@@H](CNC(=S)Nc2cccc3c(C)n[nH]c23)C(=O)N[C@@H](CC(C)C)C(=O)N2C[C@H](O)C[C@H]2C(=O)N[C@@H](Cc2c[nH]c3ccccc23)C(=O)N[C@@H](CCNC(=S)Nc2cccc3c(C)n[nH]c23)C(=O)N[C@@H](Cc2cn(CC(=O)O)c3ccccc23)C(=O)N1C` [Example 3052] ({CH2CO}-Y[NMeA]NP[Dap](X35)L[Hyp]W[Dab](X35)[Trp(1-CH2COOH)][NMeNle][NMeNle]LCG-NH2; thioether N-14) the value was 3.9 nM.
